In patent publication US6334995B1, “Process for the preparation of technetium-99m diethylene triamine penta-acetic acid diester” (Council of Scientific & Industrial Research, priority 1998, dated 2002):
Like-named read-outs stand apart in the source and are kept apart here.

Key:
[1] = cited from earlier work; for extraction efficiency: background statement; for Renal extraction: background comparison of MAG3 with iodine-131 orthoiodo-hippurate
[2] = Comparative biodistribution in rats; assay type: in vivo; conditions: for Blood, percent dose per organ / Intestine, percent dose per organ / Kidney, percent dose per organ / Liver, percent dose per organ / Urine, percent dose per organ: rat; for hepatobiliary accumulation: conclusion from biodistribution in rats or mice or scintigraphic experiments on dog
Method: (§1) Biological evaluation of technetium-99m diethylenie triamine pentaacetic acid diester by comparative biodistribution with iodine-131 orthoiodo-hippurate and technetium-99m mercaptoacetylglycylglycylglyciine.
(§2) The comparative biodistribution experiment was undertaken in mice and rats. In mice either technetium-99m diethylene triamine pentaacetic acid diester or technetium-99m mercaptoacetylglycylglycylglycine were injected via the tail vein along with iodine-131 orthoiodo-hippurate. Rats were anaesthetised with urethane and the above radiochemicals were injected via the femoral vein. After predetermined time interval the animals were sacrificed and the organs were taken in the counting vial. Considerable care were exercised not to loose any urine during the process.

[3] = Comparative biodistribution in mice; assay type: in vivo
Method: as §1, §2

[4] = Renal plasma clearance in rats, single injection method; assay type: in vivo; conditions: plasma samples at 20 and 30 min, single compartment model
Method: (§3) Renal plasma clearance of technetium-99m diethylene triamine pentaacetic acid dimethyl ester was studied in rats by single injection method. Two plasma samples were collected at 20 and 30 min time point. The clearance was calculated using a single compartment model. Iodine-131 orthoiodo-hippurate was coinjected as standard. This experiment was also performed with technetium-99m mercaptoacetylglycylglycylglycine. […] The corresponding values in dog (10-12 kg) for technetiumn-99m diethylene triamine pentaacetic acid dimethyl ester and technetium-99m mercaptoacetylglycylglycylglycine along with coinjected hippurate were 72, 80 and 157 ml/min. These values are much higher than technetium-99m diethylene triamine pentaacetic acid in rats (0.82 ml/min 100 g) or dogs (43 ml/min).

[5] = assay type: in vivo; conditions: dog (10-12 kg)
Method: as §3

[6] = background statement; cited from earlier work
[7] = background statement; cited from earlier work; remark: listed apart in the source

Molecule	Blood, percent dose per organ ([2]; 10 min post-injection) [percent dose per organ]	Intestine, percent dose per organ ([2]; 10 min post-injection) [percent dose per organ]	Kidney, percent dose per organ ([2]; 10 min post-injection) [percent dose per organ]	Liver, percent dose per organ ([2]; 10 min post-injection) [percent dose per organ]	Urine, percent dose per organ ([2]; 10 min post-injection) [percent dose per organ]	Blood, percent dose per organ ([2]; 30 min post-injection) [percent dose per organ]	Intestine, percent dose per organ ([2]; 30 min post-injection) [percent dose per organ]	Kidney, percent dose per organ ([2]; 30 min post-injection) [percent dose per organ]	Liver, percent dose per organ ([2]; 30 min post-injection) [percent dose per organ]	Urine, percent dose per organ ([2]; 30 min post-injection) [percent dose per organ]	Blood, percent dose per organ ([3]; 10 min post-injection) [percent dose per organ]	Intestine, percent dose per organ ([3]; 10 min post-injection) [percent dose per organ]	Kidney, percent dose per organ ([3]; 10 min post-injection) [percent dose per organ]	Liver, percent dose per organ ([3]; 10 min post-injection) [percent dose per organ]	Urine, percent dose per organ ([3]; 10 min post-injection) [percent dose per organ]	Blood, percent dose per organ ([3]; 30 min post-injection) [percent dose per organ]	Intestine, percent dose per organ ([3]; 30 min post-injection) [percent dose per organ]	Kidney, percent dose per organ ([3]; 30 min post-injection) [percent dose per organ]	Liver, percent dose per organ ([3]; 30 min post-injection) [percent dose per organ]	Urine, percent dose per organ ([3]; 30 min post-injection) [percent dose per organ]	further results
O=C(O)CNC(=O)c1ccccc1I [Orthoiodo-hippurate]	–	–	–	–	–	–	–	–	–	–	–	–	–	–	–	–	–	–	–	–	extraction efficiency [1]: 87%
O=C(O)CNC(=O)c1ccccc1[131I] [compound 1, Iodine-131 orthoiodo-hippurate]	5.61 ± 0.87	2.12 ± 0.41	3.72 ± 0.77	3.29 ± 1.14	48.92 ± 1.54	1.47 ± 0.28	1.92 ± 0.39	0.94 ± 0.20	0.80 ± 0.12	79.80	3.00 ± 1.29	2.16 ± 0.28	2.57 ± 1.05	2.47 ± 0.26	64.85 ± 2.74	1.41 ± 0.72	1.21 ± 0.47	0.59 ± 0.30	0.90 ± 0.14	80.38	Renal plasma clearance [4]: 2.68 ml/min/100 g; Renal plasma clearance [5]: 157 mL/min; Renal extraction [1]: 79%; protein binding [6]: 32%
Technetium-99m diethylene triamine pentaacetic acid [compound 4]	19.06 ± 2.37	3.65 ± 2.05	5.13 ± 1.00	4.91 ± 1.18	21.23 ± 1.61	7.08 ± 1.50	6.43 ± 1.42	2.78 ± 1.00	3.30 ± 0.79	43.32	14.66 ± 3.33	2.71 ± 0.20	2.57 ± 0.30	2.57 ± 0.47	35.48 ± 2.92	5.55 ± 1.22	3.12 ± 0.85	1.08 ± 0.03	1.02 ± 0.30	60.15	Renal plasma clearance [4]: 0.82 ml/min/100 g; Renal plasma clearance [5]: 43 mL/min; extraction efficiency [1]: 20%
technetium-99m diethylene triamine pentaacetic acid dimethyl ester [compound 2]	8.26 ± 0.75	2.19 ± 0.41	3.21 ± 0.29	2.14 ± 0.41	30.94 ± 3.40	3.49 ± 0.36	1.53 ± 0.10	1.47 ± 0.41	0.91 ± 0.03	64.20	7.27 ± 2.41	3.40 ± 0.25	3.36 ± 0.98	1.65 ± 0.11	46.39 ± 3.67	1.51 ± 0.53	1.67 ± 0.91	1.28 ± 0.52	1.22 ± 0.25	73.23	hepatobiliary accumulation [2]: no hepatobiliary accumulation; Renal plasma clearance [4]: 1.39 ml/min/100 g; Renal plasma clearance [5]: 72 mL/min
technetium-99m mercaptoacetylglycylglycylglycine [compound 3]	4.22 ± 0.40	4.94 ± 1.39	8.51 ± 1.54	3.37 ± 0.76	33.15 ± 6.30	2.31 ± 0.24	10.12 ± 0.88	2.99 ± 0.96	4.48 ± 1.48	63.50	6.60 ± 2.37	3.31 ± 0.40	4.32 ± 0.15	7.07 ± 0.82	48.34 ± 2.36	1.23 ± 0.26	5.82 ± 0.60	1.12 ± 0.25	4.36 ± 0.43	70.99	hepatobiliary accumulation [2]: appreciable amount; Renal plasma clearance [4]: 1.45 ml/min/100 g; Renal plasma clearance [5]: 80 mL/min; Renal extraction [1]: 53%; protein binding [6]: 77%; accumulation in hepatobiliary system [7]: Unwanted accumulation in hepatobiliary system is observed
